Data as given in BindingDB's records for doi:10.1021/acs.jmedchem.7b00306 (Bayer, 2017).

Molecular target: T1, Bromodomain-containing protein 1 (Homo sapiens, UniProt O95696)
T1 sequence (O95696 whole entry): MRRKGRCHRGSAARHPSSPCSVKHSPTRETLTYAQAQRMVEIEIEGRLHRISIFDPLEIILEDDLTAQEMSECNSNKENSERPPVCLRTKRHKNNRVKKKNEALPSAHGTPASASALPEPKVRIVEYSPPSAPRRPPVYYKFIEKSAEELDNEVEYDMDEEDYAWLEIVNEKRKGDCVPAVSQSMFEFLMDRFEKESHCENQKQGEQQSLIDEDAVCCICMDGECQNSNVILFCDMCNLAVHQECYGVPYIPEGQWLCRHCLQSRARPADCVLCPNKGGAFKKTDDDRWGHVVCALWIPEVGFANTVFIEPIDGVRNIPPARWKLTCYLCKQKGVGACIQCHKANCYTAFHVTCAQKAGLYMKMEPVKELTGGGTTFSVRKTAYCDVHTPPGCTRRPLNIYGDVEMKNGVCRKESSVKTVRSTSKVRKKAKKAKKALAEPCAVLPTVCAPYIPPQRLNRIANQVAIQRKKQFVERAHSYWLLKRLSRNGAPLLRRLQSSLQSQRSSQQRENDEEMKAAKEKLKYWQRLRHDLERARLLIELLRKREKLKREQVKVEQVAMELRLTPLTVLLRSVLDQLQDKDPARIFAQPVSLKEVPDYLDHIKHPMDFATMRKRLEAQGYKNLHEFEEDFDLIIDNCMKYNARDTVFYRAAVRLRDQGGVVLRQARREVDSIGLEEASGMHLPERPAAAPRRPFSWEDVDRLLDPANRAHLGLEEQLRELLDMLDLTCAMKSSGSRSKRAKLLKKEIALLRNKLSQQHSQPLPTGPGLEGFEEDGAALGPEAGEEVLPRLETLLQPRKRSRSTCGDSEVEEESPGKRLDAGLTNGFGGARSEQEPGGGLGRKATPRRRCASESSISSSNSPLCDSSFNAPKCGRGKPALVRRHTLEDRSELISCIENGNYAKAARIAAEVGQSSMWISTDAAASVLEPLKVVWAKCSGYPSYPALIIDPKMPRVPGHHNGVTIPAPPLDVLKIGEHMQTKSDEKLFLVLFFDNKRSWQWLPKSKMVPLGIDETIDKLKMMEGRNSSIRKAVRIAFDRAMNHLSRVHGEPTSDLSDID
Experiment: Alphascreen assay. Binding to BRD1A (domain start/stop: E556-A688) by alphascreen assay

COc1cc2c(cc1NS(=O)(=O)c1ccc(Br)cc1C)n(C)c(=O)n2C [OF-1]
IC50: 1.68 µM
